Like-named read-outs stand apart in the source and are kept apart here.
Experiments:
Echinochloa crusgalli = assay: Activity test of the compositions, post-emergence treatment by foliage spray; format: in vivo; conditions: foliage (F)
Protocol: (§1) The desired active ingredient B was purchased from a reagent company or synthesized by a known method. The technical materials were all dissolved in acetone and diluted with an aqueous solution containing 0.10% emulsifier Tween-80 which were to be used immediately after dilution.
Weeds were cultivated by a pot culture method. […] Weed seeds with plump and uniform grains were selected, soaked in lukewarm water at 25° C. for 6 hours, and germinated in a 28° C. biochemical incubator (in darkness). The weed seeds that had just germinated were evenly placed on the surface of the soil and then covered with 0.5-1 cm soil according to the sizes of seeds.
The culture was carried out in a controllable sunlight greenhouse at 20 to 30° C., in natural light, and with relative humidity of 57% to 72%.
(§2) Each treatment was repeated 4 times. Four pots with 20 weed seeds per pot were treated each time.
The agents were used for only once in total in the experiment. In the stage of 1.5-2 leaves, the weeds were thinned out to maintain 10 weeds per pot. Ten weeds were kept in each treatment, then continued to be cultured until Echinochloa crus-galli var. zelayensis reached the stage of 2-3 leaves, Cirsium setosum reached the stage of 5-6 leaves, Galium aparine reached the stage of 3-4 whorl leaves, Amaranthus retroflexus reached the stage of 3-5 leaves, Echinochloa crusgalli, Lolium multiflorum and Digitaria sanguinalis reached the stage of 3 leaves with one leaf not fully expanding for further treatment.
(§3) The well-cultured test materials were evenly placed on a platform with an area of 0.5 m^2, and solution of agents was sprayed on the stems and leaves thereof by the 3WP-2000-type walking spray tower at a dosage of 450 kg/ha and at a spray pressure of 0.3 MPa. After all the solution was sprayed, the valve was closed. After 30 seconds, the door of the spray tower was opened, and the nutritional bowl was taken out. Then the valve was opened, and the spray tube was cleaned by spraying 50 ml of water. After the treatment, the weeds were routinely cultured in a greenhouse.
(§4) A method for investigating absolute numbers was employed. Whole seedlings of survival weeds were cut off with a blade along the soil surface, and the fresh weight of the weeds was weighed with an analytical balance. For dead weeds, the fresh weight thereof was zero.
(§5) The investigation was performed 21 days after the treatment for only once in total.

weeds = assay: Activity test of the compositions, soil sealing treatment; format: in vivo; conditions: for pest or weed control at 3.75 g/ha: B 0.25 g a.i./mu; for pest or weed control at 240 g/ha: B 16 g a.i./mu; for pest or weed control at 480 g/ha: B 32 g a.i./mu
Protocol: as §1
Weeds are cultivated in a controllable sunlight greenhouse at 20 to 30° C., in natural light, and with relative humidity of 57% to 72%. […] The test soil was filled quantitatively to ¾ of the pots and then watered from the bottom of the pots to completely wet the soil to saturation. The test weed seeds were accelerated to just germinate, and then evenly and quantitatively sowed on the surface, then covered with 0.5-1 cm soil according to the seed size, and ready for use 72 hours after sowing.
as §2
as §3, with “well-sowed” for “well-cultured”, “soil” for “stems and leaves thereof”, “water.” for “water. After the treatment, the weeds were routinely cultured in a greenhouse.”
as §4, §5

[1] = Lolium multiflorum, soil (S), read-out: Control effect (%) of B applied alone (B)
[2] = Lolium multiflorum, soil (S), B 2 g a.i./mu, read-out: Control effect (%) of B applied alone (B)
[3] = Echinochloa crus-galli, Echinochloa crusgalli, soil (S), B 6 g a.i./mu, read-out: Control effect (%) of B applied alone (B)
[4] = Echinochloa crus-galli, Echinochloa crusgalli, soil (S), B 12 g a.i./mu, read-out: Control effect (%) of B applied alone (B)
[5] = Echinochloa crus-galli, Echinochloa crusgalli, soil (S), B 1 g a.i./mu, read-out: Control effect (%) of B applied alone (B)
[6] = Echinochloa crus-galli, Echinochloa crusgalli, soil (S), B 2 g a.i./mu, read-out: Control effect (%) of B applied alone (B)
[7] = Echinochloa crus-galli, Echinochloa crusgalli, soil (S), read-out: Control effect (%) of B applied alone (B)
[8] = Echinochloa crus-galli, Echinochloa crusgalli, soil (S), B 4 g a.i./mu, read-out: Control effect (%) of B applied alone (B)
[9] = Echinochloa crus-galli, Echinochloa crusgalli, soil (S), B 8 g a.i./mu, read-out: Control effect (%) of B applied alone (B)
[10] = Echinochloa crus-galli, soil, read-out: Control effect (%) of B applied alone (B)
[11] = Potamogeton distinctus, soil, read-out: Control effect (%) of B applied alone (B)
[12] = Echinochloa crusgalli, soil (S), B 4 g a.i./mu
[13] = Lolium multiflorum, soil, read-out: Control effect (%) of B applied alone (B)

## CCC[S@@+]([O-])c1c(C(F)(F)F)ccc(C(=O)Nc2nnc(C)o2)c1F
Echinochloa crusgalli; B 1.5 g a.i./mu
  Control effect (%) of B applied alone (B): 33.8%
Echinochloa crusgalli; B 3 g a.i./mu
  Control effect (%) of B applied alone (B): 49.7%

## CCn1ncc(C(=O)c2ccc(S(C)(=O)=O)c(COCC(F)(F)F)c2Cl)c1OC(=O)c1cn(C)nc1C [fenpyrazone]
Echinochloa crusgalli; B 1.5 g a.i./mu
  Control effect (%) of B applied alone (B): 32.6%
Echinochloa crusgalli; B 3 g a.i./mu
  Control effect (%) of B applied alone (B): 50.7%

## CCOc1ccccc1OS(=O)(=O)NC(=O)Nc1nc(OC)cc(OC)n1 [ethoxysulfuron]
weeds; Cyperus difformis, soil (S), read-out: Control effect (%) of B applied alone (B)
  pest or weed control at 3.75 g/ha: 44.6%
weeds; Cyperus difformis, soil (S), B 0.5 g a.i./mu, read-out: Control effect (%) of B applied alone (B)
  pest or weed control at 7.5 g/ha: 58.4%

## CC(C)CCCCCOC(=O)COc1ccc(Cl)cc1Cl [2,4-D isooctyl ester]
weeds; Veronica didyma, soil (S), B 6 g a.i./mu
  Control effect (%) of B applied alone (B): 33.6%
weeds; Veronica didyma, soil (S), B 12 g a.i./mu
  Control effect (%) of B applied alone (B): 42.5%

## CCC(CC)Nc1c([N+](=O)[O-])cc(C)c(C)c1[N+](=O)[O-] [pendimethalin]
weeds; [1]
  pest or weed control at 240 g/ha: 23.6%
  pest or weed control at 480 g/ha: 42.7%

## Cn1nc(C(F)(F)F)c(CS(=O)(=O)C2=NOC(C)(C)C2)c1OC(F)F [pyroxasulfone]
weeds; [2]
  pest or weed control at 30 g/ha: 24.7%
weeds; Lolium multiflorum, soil (S), B 4 g a.i./mu, read-out: Control effect (%) of B applied alone (B)
  pest or weed control at 60 g/ha: 49.2%

## O=C(Nc1ccc(F)cc1F)c1cccnc1Oc1cccc(C(F)(F)F)c1 [diflufenican]
weeds; Lolium multiflorum, soil (S), B 1 g a.i./mu, read-out: Control effect (%) of B applied alone (B)
  pest or weed control at 15 g/ha: 37.1%
weeds; [2]
  pest or weed control at 30 g/ha: 52.4%

## COc1ccc(-n2c(=O)c(C(=O)C3C(=O)CCCC3=O)nc3c(Cl)cccc32)cc1 [fenquinotrione]
weeds; Lolium multiflorum, soil (S), B 1.5 g a.i./mu
  Control effect (%) of B applied alone (B): 28.6%
weeds; Lolium multiflorum, soil (S), B 3 g a.i./mu
  Control effect (%) of B applied alone (B): 44.1%

## CC(C)N(C)S(=O)(=O)NC(=O)c1cc(-n2c(=O)cc(C(F)(F)F)n(C)c2=O)c(F)cc1Cl [saflufenacil]
weeds; Amaranthus retroflexus, soil (S), read-out: Control effect (%) of B applied alone (B)
  pest or weed control at 3.75 g/ha: 35.2%
weeds; Amaranthus retroflexus, soil (S), B 0.5 g a.i./mu, read-out: Control effect (%) of B applied alone (B)
  pest or weed control at 7.5 g/ha: 43.8%

## COCC(C)N(C(=O)CCl)c1c(C)csc1C (stereo not drawn) [dimethenamid]
weeds; [3]
  pest or weed control at 90 g/ha: 31.5%
weeds; [4]
  pest or weed control at 180 g/ha: 43.7%

## Nc1c([N+](=O)[O-])ccc(Oc2ccccc2)c1Cl [aclonifen]
weeds; Lolium multiflorum, soil (S), B 20 g a.i./mu, read-out: Control effect (%) of B applied alone (B)
  pest or weed control at 300 g/ha: 31.6%
weeds; Lolium multiflorum, soil (S), B 40 g a.i./mu, read-out: Control effect (%) of B applied alone (B)
  pest or weed control at 600 g/ha: 52.1%

## CN1C[C@H](c2cccc(C(F)(F)F)c2)[C@@H](C(=O)Nc2ccccc2F)C1=O [tetflupyrolimet]
weeds; Echinochloa crusgalli, soil treatment (S), B at 1 g a.i./mu, 21 days
  Control effect (%) of B applied alone (B): 34.7%
weeds; Echinochloa crusgalli, soil treatment (S), B at 2 g a.i./mu, 21 days
  Control effect (%) of B applied alone (B): 55.6%

## CCc1cnc(C2=NC(C)(C(C)C)C(=O)N2)c(C(=O)O)c1 (stereo not drawn) [imazethapyr]
weeds; [5]
  pest or weed control at 15 g/ha: 33.4%
weeds; [6]
  pest or weed control at 30 g/ha: 43.8%

## CCOC(=O)COc1ncccc1Oc1cc(-n2c(=O)cc(C(F)(F)F)n(C)c2=O)c(F)cc1Cl [epyrifenacil]
weeds; Amaranthus retroflexus, soil (S), B 0.5 g a.i./mu
  Control effect (%) of B applied alone (B): 36.9%
weeds; Amaranthus retroflexus, soil (S), B 1 g a.i./mu
  Control effect (%) of B applied alone (B): 47.1%

## Cc1ccccc1CO[C@@H]1C[C@@]2(C(C)C)CC[C@]1(C)O2 (racemic) [cinmethylin]
weeds; Echinochloa crus-galli, Echinochloa crusgalli, soil (S), B 0.4 g a.i./mu, read-out: Control effect (%) of B applied alone (B)
  pest or weed control at 6 g/ha: 26.4%
weeds; Echinochloa crus-galli, Echinochloa crusgalli, soil (S), B 0.8 g a.i./mu, read-out: Control effect (%) of B applied alone (B)
  pest or weed control at 12 g/ha: 38.6%

## CCN(C(=O)n1nnn(-c2ccccc2Cl)c1=O)C1CCCCC1 [fentrazamide]
weeds; [7]
  pest or weed control at 240 g/ha: 32.5%
  pest or weed control at 480 g/ha: 50.8%

## Cc1nn(-c2cc(NS(C)(=O)=O)c(Cl)cc2Cl)c(=O)n1C(F)F [sulfentrazone]
weeds; [8]
  pest or weed control at 60 g/ha: 34.2%
weeds; [9]
  pest or weed control at 120 g/ha: 53.6%

## COP(=S)(OC)SCC(=O)N(c1ccc(Cl)cc1)C(C)(C)C [anilofos]
weeds; [10]
  pest or weed control at 30 g/ha: 23.1%
  pest or weed control at 60 g/ha: 32.6%

## CCNc1nc(NCC)nc(SC)n1 [simetryn]
weeds; [11]
  pest or weed control at 90 g/ha: 41.5%
  pest or weed control at 180 g/ha: 58.3%

## CC(C)N(C(=O)n1cnn(-c2ccc(Cl)cc2Cl)c1=O)c1ccc(F)cc1F [ipfencarbazone]
weeds; Echinochloa crusgalli, soil (S), B 2 g a.i./mu
  Control effect (%) of B applied alone (B): 41.5%
weeds; [12]
  Control effect (%) of B applied alone (B): 57.6%

## C#CCN1C(=O)COc2cc(F)c(N3C(=O)C4=C(CCCC4)C3=O)cc21 [flumioxazin]
weeds; Echinochloa crus-galli, Echinochloa crusgalli, soil (S), B 0.5 g a.i./mu, read-out: Control effect (%) of B applied alone (B)
  pest or weed control at 7.5 g/ha: 32.8%
weeds; [5]
  pest or weed control at 15 g/ha: 45.1%

## COC[C@H](C)N(C(=O)CCl)c1c(C)csc1C [dimethenamid-P]
weeds; [12]
  Control effect (%) of B applied alone (B): 34.2%
weeds; Echinochloa crusgalli, soil (S), B 8 g a.i./mu
  Control effect (%) of B applied alone (B): 47.5%

## O=C1C(Cl)C(CCl)CN1c1cccc(C(F)(F)F)c1 (stereo not drawn) [flurochloridone]
weeds; Veronica polita, Veronica didyma, soil (S), B 4 g a.i./mu, read-out: Control effect (%) of B applied alone (B)
  pest or weed control at 60 g/ha: 45.1%
weeds; Veronica polita, Veronica didyma, soil (S), B 8 g a.i./mu, read-out: Control effect (%) of B applied alone (B)
  pest or weed control at 120 g/ha: 60.8%

## CCSC(=O)N1CCCCCC1 [molinate]
weeds; Echinochloa crus-galli, Echinochloa crusgalli, soil (S), B 20 g a.i./mu, read-out: Control effect (%) of B applied alone (B)
  pest or weed control at 300 g/ha: 39.6%
weeds; Echinochloa crus-galli, Echinochloa crusgalli, soil (S), B 40 g a.i./mu, read-out: Control effect (%) of B applied alone (B)
  pest or weed control at 600 g/ha: 51.7%

## CCNc1nc(NC(C)C)nc(SC)n1 [ametryne]
weeds; [13]
  pest or weed control at 300 g/ha: 18.1%
  pest or weed control at 600 g/ha: 31.6%

## COC(=O)C12ON=C(c3cc(-n4c(=O)cc(C(F)(F)F)n(C)c4=O)c(F)cc3Cl)C1CCC2C (stereo not drawn)
weeds; [5]
  pest or weed control at 15 g/ha: 40.2%
weeds; [6]
  pest or weed control at 30 g/ha: 53.1%

## O=C(Nc1ccc(F)cc1)c1cccc(Oc2cccc(C(F)(F)F)c2)n1 [picolinafen]
weeds; Galium aparine, soil (S), B 0.5 g a.i./mu
  Control effect (%) of B applied alone (B): 40.8%
weeds; Galium aparine, soil (S), B 1 g a.i./mu
  Control effect (%) of B applied alone (B): 55.7%

## C#CCOc1cc(-n2nc(C(C)(C)C)oc2=O)c(Cl)cc1Cl [oxadiargy1]
weeds; Echinochloa crusgalli, soil (S), B 0.5 g a.i./mu
  Control effect (%) of B applied alone (B): 36.2%
weeds; Echinochloa crusgalli, soil (S), B 1 g a.i./mu
  Control effect (%) of B applied alone (B): 47.9%

## CC(C)N(C(=O)COc1nnc(C(F)(F)F)s1)c1ccc(F)cc1 [flufenacet]
weeds; [3]
  pest or weed control at 90 g/ha: 29.8%
weeds; [4]
  pest or weed control at 180 g/ha: 37.5%

## CC(C)Oc1cc(-n2nc(C(C)(C)C)oc2=O)c(Cl)cc1Cl [oxadiazon]
weeds; [8]
  pest or weed control at 60 g/ha: 37.2%
weeds; [9]
  pest or weed control at 120 g/ha: 51.9%

From patent US20240327359A1, “3-ISOXAZOLIDINONE COMPOUND, PREPARATION METHOD, HERBICIDAL COMPOSITION AND APPLICATION THEREOF” (QINGDAO KINGAGROOT CHEMICAL COMPOUND CO., LTD., priority 2021, published 2024)
